The values below come from patent US20230391845A1, “GLP-1, GIP AND GLUCAGON RECEPTOR TRIPLE AGONISTS” (priority 2020, published 2023).

*1 amine or outer side, *2 acyl side, *3 side chain or, on linkers, in order; H or OH if unused. Where a SMILES comes first, the peptide text is derived from it. Side-chain parts run from the residue outwards. [ ]: non-standard residue; d: D form. The star is where a group is joined. C18 diacid = O=C(O)CCCCCCCCCCCCCCCCC(=O)*; γGlu = O=C(O)[C@H](CCC(=O)[*:2])N[*:1]; AEEA = NCCOCCOCC(=O)O; Aib = CC(C)(N)C(=O)O

The target in one data set is T1, human GLP-1 receptor (Homo sapiens, UniProt P43220).
T1 construct: expressed in transfected cells; host or cells: BHK cells (parent line BHKTS13) containing CRE luciferase
In words: In vitro functional potency (CRE luciferase; whole cells), human GLP-1R. Particulars: BHK CRE luc2P hGLP-1R whole cells, Table 1, position of substituent varied; for EC50: read-out: hGLP-1R CRE Luc EC50. The class given is cell-based.

The target in the next data set is T2, human GIP receptor (Homo sapiens, UniProt P48546).
T2 construct: expressed in transfected cells; host or cells: BHK cells (parent line BHKTS13) containing CRE luciferase
T2 sequence (P48546 22-466): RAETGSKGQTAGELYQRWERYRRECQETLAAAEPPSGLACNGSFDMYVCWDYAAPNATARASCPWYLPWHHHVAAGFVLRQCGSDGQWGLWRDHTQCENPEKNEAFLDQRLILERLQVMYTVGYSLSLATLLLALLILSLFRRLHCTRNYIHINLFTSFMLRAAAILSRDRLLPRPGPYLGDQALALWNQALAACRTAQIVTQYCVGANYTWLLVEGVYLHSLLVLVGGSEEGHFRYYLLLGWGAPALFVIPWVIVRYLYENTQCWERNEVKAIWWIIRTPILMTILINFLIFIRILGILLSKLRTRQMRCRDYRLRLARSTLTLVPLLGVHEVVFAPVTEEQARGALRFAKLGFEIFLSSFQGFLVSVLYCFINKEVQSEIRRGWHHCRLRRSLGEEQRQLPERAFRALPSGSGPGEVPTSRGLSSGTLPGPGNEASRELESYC
In words: In vitro functional potency (CRE luciferase; whole cells), human GIPR. The class given is cell-based. To be noted: BHK CRE luc2P hGIPR whole cells, Table 1, position of substituent varied; for EC50: read-out: hGIPR CRE Luc EC50.

For a further data set, the target named is T3, human Gcg receptor (Homo sapiens, UniProt P47871).
T3 construct: expressed in transfected cells; host or cells: BHK cells (parent line BHKTS13) containing CRE luciferase
Nature of the data set: In vitro functional potency (CRE luciferase; whole cells), human GcgR. Format: cell-based. To be noted: BHK CRE luc2P hGcgR whole cells, Table 1, position of substituent varied; for EC50: read-out: hGcgR CRE Luc EC50.

Data set [1] in a line: Pharmacokinetic study in minipigs, i.v. administration. To be noted: female, Göttingen, minipig, in vivo, iv. The arrangement: species or system Göttingen minipigs. The essentials:
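Terminal half-life, reported as harmonic mean, came from non-compartmental fits of plasma levels measured by antibody assay or LCMS over up to 14 days. Dosing was i.v., typically 1.5-2 nmol/kg, through implanted caval catheters in fasted female Göttingen minipigs of 16-35 kg.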

T1 sequence (P43220 24-463): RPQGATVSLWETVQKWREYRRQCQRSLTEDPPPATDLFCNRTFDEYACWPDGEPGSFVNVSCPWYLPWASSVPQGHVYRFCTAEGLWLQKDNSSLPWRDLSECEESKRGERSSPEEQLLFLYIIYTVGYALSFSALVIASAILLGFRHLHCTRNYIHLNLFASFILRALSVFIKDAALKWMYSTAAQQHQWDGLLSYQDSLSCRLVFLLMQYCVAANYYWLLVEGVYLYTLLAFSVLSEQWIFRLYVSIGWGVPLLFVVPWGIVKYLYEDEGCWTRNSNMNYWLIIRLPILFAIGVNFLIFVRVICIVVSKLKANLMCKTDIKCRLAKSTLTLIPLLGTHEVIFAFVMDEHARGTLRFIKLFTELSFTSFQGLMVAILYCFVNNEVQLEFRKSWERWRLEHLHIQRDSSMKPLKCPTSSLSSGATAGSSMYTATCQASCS
T3 sequence (P47871 26-477): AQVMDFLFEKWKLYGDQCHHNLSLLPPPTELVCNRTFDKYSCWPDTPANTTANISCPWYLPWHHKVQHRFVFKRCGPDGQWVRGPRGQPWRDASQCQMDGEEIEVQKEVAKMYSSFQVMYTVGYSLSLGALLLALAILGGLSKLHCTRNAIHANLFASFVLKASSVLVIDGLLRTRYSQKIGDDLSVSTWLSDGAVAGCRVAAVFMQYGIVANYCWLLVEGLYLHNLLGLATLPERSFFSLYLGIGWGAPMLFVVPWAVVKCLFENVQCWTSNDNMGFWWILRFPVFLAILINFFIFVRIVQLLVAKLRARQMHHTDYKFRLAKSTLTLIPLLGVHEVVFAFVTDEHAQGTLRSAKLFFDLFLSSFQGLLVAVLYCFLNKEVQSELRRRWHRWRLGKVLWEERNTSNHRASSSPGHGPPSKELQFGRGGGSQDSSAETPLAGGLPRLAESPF
Description for human GIP receptor: (§1) The purpose of this example is to test the functional activity, or potency, of the compounds in vitro at the human and mouse GLP-1, GIP, and Gcg receptors. The in vitro functional potency is the measure of target receptor activation in a whole cell assay.
(§2) In vitro functional potency was determined by measuring the response of the target receptor in a reporter gene assay in individual cell lines. The assay was performed in stably transfected BHK cell lines that expresses one of the following G-protein coupled receptors: human GLP-1 receptor, human GIP receptor, human Gcg receptor, mouse GLP-1 receptor, mouse GIP receptor, or mouse Gcg receptor; and where each cell line contains the DNA for the cAMP response element (CRE) coupled to a promoter and the gene for firefly luciferase (CRE luciferase). When the respective receptor is activated, it results in the production of cAMP, which in turn results in expression of the luciferase protein. When assay incubation is completed, luciferase substrate (luciferin) is added resulting in the enzymatic conversion of luciferin to oxyluciferin and producing bioluminescence. The luminescence is measured as the readout for the assay.
(§3) The cells lines used in these assays were BHK cells with BHKTS13 as a parent cell line. The cell lines were derived from a clone containing the CRE luciferase element and were established by further transfection with the respective receptor to obtain the relevant cell line.
(§4) The cells were cultured at 37° C. with 5% CO2 in Cell Culture Medium. They were aliquoted and stored in liquid nitrogen. The cells were kept in continuous culture and were seeded out the day before each assay.
(§5) GLP-1R and GcgR Cell Culture Medium consisted of DMEM medium with 10% FBS, 500 µg/mL G418, and 300 µg/mL hygromycin. GIPR Cell Culture Medium consisted of DMEM medium with 10% FBS, 400 µg/mL G418, and 300 µg/mL hygromycin. Assay Buffer consisted of DMEM w/o phenol red, 10 mM Hepes, 1× Glutamax, 1% ovalbumin, and 0.1% Pluronic F-68.
(§6) • 1) Cells were plated at 5000 cells/well and incubated overnight in the assay plate. • 2) Cells were washed once in DPBS. • 3) Stocks of the test compounds and reference compounds in concentrations ranging from 100-300 pM were diluted 1:150 in Assay Buffer.
(§7) The data from the microtiter plate reader was first regressed in an Excel in order to calculate the x-axis, log scale concentrations based on the individual test compound's stock concentration and the dilutions of the assay. […] The software performs a non-linear regression (log(agonist) vs response). A minimum of two replicates was measured for each sample. The reported values are averages of the replicates.
Description for human Gcg receptor: as §1, §2, §3, §4, §5, §6, §7

With `CC[C@H](C)[C@H](NC(=O)[C@H](CO)NC(=O)[C@H](Cc1ccc(O)cc1)NC(=O)[C@H](CC(=O)O)NC(=O)[C@H](CO)NC(=O)[C@@H](NC(=O)[C@H](Cc1ccccc1)NC(=O)[C@@H](NC(=O)CNC(=O)[C@H](CCC(N)=O)NC(=O)C(C)(C)NC(=O)[C@@H](N)Cc1ccc(O)cc1)[C@@H](C)O)[C@@H](C)O)C(=O)N[C@@H](Cc1ccc(O)cc1)C(=O)N[C@@H](CC(C)C)C(=O)N[C@@H](CC(=O)O)C(=O)N[C@@H](CCCCN)C(=O)N[C@@H](CCC(N)=O)C(=O)N[C@@H](C)C(=O)N[C@@H](C)C(=O)NC(C)(C)C(=O)N[C@@H](CCC(=O)O)C(=O)N[C@@H](Cc1ccccc1)C(=O)N[C@H](C(=O)N[C@@H](CC(N)=O)C(=O)N[C@@H](Cc1c[nH]c2ccccc12)C(=O)N[C@@H](CC(C)C)C(=O)N[C@@H](CC(C)C)C(=O)N[C@@H](C)C(=O)NCC(=O)NCC(=O)N1CCC[C@H]1C(=O)N[C@@H](CO)C(=O)N[C@@H](CO)C(=O)NCC(=O)N[C@@H](C)C(=O)N1CCC[C@H]1C(=O)N1CCC[C@H]1C(=O)N1CCC[C@H]1C(=O)N[C@@H](CO)C(=O)N[C@@H](CCCCNC(=O)COCCOCCNC(=O)COCCOCCNC(=O)CC[C@H](NC(=O)CCCCCCCCCCCCCCCCC(=O)O)C(=O)O)C(N)=O)C(C)C` [Compound No. 59, reference compound] (H-Y[Aib]QGTFTSDYSIYLDKQAA[Aib]EFVNWLLAGGPSSGAPPPSK([AEEA-AEEA-γGlu-C18 diacid])-NH2; N-terminus assumed), the “hGLP-1R CRE Luc EC50 (pM)” value on human GLP-1 receptor is recorded as “lower potency”. Also, the “hGIPR CRE Luc EC50 (pM)” value at human GIP receptor was “lower potency”. Besides, on human Gcg receptor, the “hGcgR CRE Luc EC50 (pM)” value was “lower potency”.

For `CC[C@H](C)[C@H](NC(=O)[C@H](CO)NC(=O)[C@H](Cc1ccc(O)cc1)NC(=O)[C@H](CC(=O)O)NC(=O)[C@H](CO)NC(=O)[C@@H](NC(=O)[C@H](Cc1ccccc1)NC(=O)[C@@H](NC(=O)CNC(=O)[C@H](CCC(N)=O)NC(=O)C(C)(C)NC(=O)[C@@H](N)Cc1ccc(O)cc1)[C@@H](C)O)[C@@H](C)O)C(=O)N[C@@H](Cc1ccc(O)cc1)C(=O)N[C@@H](CC(C)C)C(=O)N[C@@H](CC(=O)O)C(=O)N[C@@H](CCCCN)C(=O)N[C@@H](CCC(N)=O)C(=O)N[C@@H](C)C(=O)N[C@@H](C)C(=O)NC(C)(C)C(=O)N[C@@H](CCCCNC(=O)COCCOCCNC(=O)COCCOCCNC(=O)CC[C@H](NC(=O)CCCCCCCCCCCCCCCCC(=O)O)C(=O)O)C(=O)N[C@@H](Cc1ccccc1)C(=O)N[C@H](C(=O)N[C@@H](CC(N)=O)C(=O)N[C@@H](Cc1c[nH]c2ccccc12)C(=O)N[C@@H](CC(C)C)C(=O)N[C@@H](CC(C)C)C(=O)N[C@@H](C)C(=O)NCC(=O)NCC(=O)N1CCC[C@H]1C(=O)N[C@@H](CO)C(=O)N[C@@H](CO)C(=O)NCC(=O)N[C@@H](C)C(=O)N1CCC[C@H]1C(=O)N1CCC[C@H]1C(=O)N1CCC[C@H]1C(=O)N[C@@H](CO)C(N)=O)C(C)C` [Compound No. 3] (H-Y[Aib]QGTFTSDYSIYLDKQAA[Aib]K([AEEA-AEEA-γGlu-C18 diacid])FVNWLLAGGPSSGAPPPS-NH2; N-terminus assumed), the figures for the EC50 on human GLP-1 receptor, at human GIP receptor and on human Gcg receptor were 0.0054 nM, 0.0275 nM and 0.0347 nM, respectively. Further, the half-life in data set [1] was 33 h.

Turning to `CC[C@H](C)[C@H](NC(=O)[C@H](CO)NC(=O)[C@H](Cc1ccc(O)cc1)NC(=O)[C@H](CC(=O)O)NC(=O)[C@H](CO)NC(=O)[C@@H](NC(=O)[C@H](Cc1ccccc1)NC(=O)[C@@H](NC(=O)CNC(=O)[C@H](CCC(N)=O)NC(=O)C(C)(C)NC(=O)[C@@H](N)Cc1ccc(O)cc1)[C@@H](C)O)[C@@H](C)O)C(=O)N[C@@H](Cc1ccc(O)cc1)C(=O)N[C@@H](CC(C)C)C(=O)N[C@@H](CC(=O)O)C(=O)N[C@@H](CCCCNC(=O)COCCOCCNC(=O)COCCOCCNC(=O)CC[C@H](NC(=O)CCCCCCCCCCCCCCCCC(=O)O)C(=O)O)C(=O)N[C@@H](CCC(N)=O)C(=O)N[C@@H](C)C(=O)N[C@@H](C)C(=O)NC(C)(C)C(=O)N[C@@H](CCC(=O)O)C(=O)N[C@@H](Cc1ccccc1)C(=O)N[C@H](C(=O)N[C@@H](CC(N)=O)C(=O)N[C@@H](Cc1c[nH]c2ccccc12)C(=O)N[C@@H](CC(C)C)C(=O)N[C@@H](CC(C)C)C(=O)N[C@@H](C)C(=O)NCC(=O)NCC(=O)N1CCC[C@H]1C(=O)N[C@@H](CO)C(=O)N[C@@H](CO)C(=O)NCC(=O)N[C@@H](C)C(=O)N1CCC[C@H]1C(=O)N1CCC[C@H]1C(=O)N1CCC[C@H]1C(=O)N[C@@H](CO)C(N)=O)C(C)C` [Compound No. 1] (H-Y[Aib]QGTFTSDYSIYLDK([AEEA-AEEA-γGlu-C18 diacid])QAA[Aib]EFVNWLLAGGPSSGAPPPS-NH2; N-terminus assumed), the values for the EC50 on human GLP-1 receptor, at human GIP receptor and on human Gcg receptor were 0.0086 nM, 0.0237 nM and 0.157 nM, respectively. In data set [1], this compound had a half-life of 61 h.

On to `CC[C@H](C)[C@H](NC(=O)[C@H](CO)NC(=O)[C@H](Cc1ccc(O)cc1)NC(=O)[C@H](CC(=O)O)NC(=O)[C@H](CO)NC(=O)[C@@H](NC(=O)[C@H](Cc1ccccc1)NC(=O)[C@@H](NC(=O)CNC(=O)[C@H](CCC(N)=O)NC(=O)C(C)(C)NC(=O)[C@@H](N)Cc1ccc(O)cc1)[C@@H](C)O)[C@@H](C)O)C(=O)N[C@@H](Cc1ccc(O)cc1)C(=O)N[C@@H](CC(C)C)C(=O)N[C@@H](CC(=O)O)C(=O)N[C@@H](CCCCN)C(=O)N[C@@H](CCCCNC(=O)COCCOCCNC(=O)COCCOCCNC(=O)CC[C@H](NC(=O)CCCCCCCCCCCCCCCCC(=O)O)C(=O)O)C(=O)N[C@@H](C)C(=O)N[C@@H](C)C(=O)NC(C)(C)C(=O)N[C@@H](CCC(=O)O)C(=O)N[C@@H](Cc1ccccc1)C(=O)N[C@H](C(=O)N[C@@H](CC(N)=O)C(=O)N[C@@H](Cc1c[nH]c2ccccc12)C(=O)N[C@@H](CC(C)C)C(=O)N[C@@H](CC(C)C)C(=O)N[C@@H](C)C(=O)NCC(=O)NCC(=O)N1CCC[C@H]1C(=O)N[C@@H](CO)C(=O)N[C@@H](CO)C(=O)NCC(=O)N[C@@H](C)C(=O)N1CCC[C@H]1C(=O)N1CCC[C@H]1C(=O)N1CCC[C@H]1C(=O)N[C@@H](CO)C(N)=O)C(C)C` [Compound No. 2] (H-Y[Aib]QGTFTSDYSIYLDKK([AEEA-AEEA-γGlu-C18 diacid])AA[Aib]EFVNWLLAGGPSSGAPPPS-NH2; N-terminus assumed), for which the EC50 is 0.0071 nM on human GLP-1 receptor, 0.0498 nM at human GIP receptor and 0.0476 nM at human Gcg receptor. Besides, in data set [1], the half-life was 45 h.

Usually EC50 stands for the concentration needed to bring the measured effect to its halfway point. In general, half-life refers to the time in which the quantity being followed falls by half. A lower half-life goes with fast loss.
